Reference: patent US20230183187A1, “QUINAZOLINE COMPOUNDS AS INHIBITORS OF PREMATURE TERMINATION CODONS” (CENTRE NATIONAL DE LA RECHERCHE SCIENTIFIQUE, priority 2020, published 2023)

What was measured:
[1] = tested on: NIH3T3 cells; experiment: WST1 tetrazolium viability assay, NIH3T3; assay type: cell-based, mouse; conditions: NIH3T3, 24 h, maximal dose used
Protocol: (§1) The inventors tested the effect of TLN68 on viability of NIH3T3, HDQ-P1 and HeLa cell lines by using a tetrazolium salt which is cleaved only by metabolically active cells. Cells were treated or not with a range of TLN68 doses during 24 h and viability was measured.

[2] = tested on: Bax mRNA (target of p53); experiment: RT-qPCR of Bax mRNA in HDQ-P1 cells; assay type: cell-based, human; conditions: HDQ-P1, TLN68 80 μM, 48 hours, n=3
Protocol: For the analysis of mRNA levels for p53 and its transcriptional target genes, Bax, the inventors extracted total RNA from HDQ-P1 cells that had or had not been treated with G418 (400 μM) or TLN68 (80 μM) for 48 hours (RNeasy Mini Kit, Qiagen). The RNA was treated with DNAse I (RNase-free DNase) and quantified with a Nanodrop spectrometer (ThermoScientific). The absence of RNA degradation was confirmed by agarose gel electrophoresis. The first-strand cDNA was synthesized from 2 μg of total RNA, with random primers and the SuperScript II Reverse Transcriptase (Invitrogen), as recommended by the manufacturer. Quantitative PCR was then carried out on equal amounts of the various cDNAs, with a CFX96 thermocycler (Biorad), and the accumulation of products was monitored with the intercalating dye FastStart Universal SYBRGreen Master (ROX) reagent (Roche). The inventors quantified mRNA levels relative to three reference mRNAs: RPL32, Hprt1 and HMBS. In each experiment, results are expressed relative to those for untreated cells, for which the value obtained was set to 1. Relative levels of gene expression were calculated at early stages of PCR, when the amplification was exponential and might, therefore, be correlated with the initial number of copies of the transcript. […] For the quantification of each mRNA, three independent experiments (from biological replicates) were performed in triplicate. […]

[3] = tested on: nonsense mutation W1268X; experiment: pAC99 dual reporter readthrough in HeLa cells, W1268X; assay type: cell-based, human; conditions: 24 hours
Protocol: (§2) Different compounds of the invention have been tested for their ability to induce readthrough on the nonsense mutation W1268X or R213X in HeLa cells.
(§3) To this aim the inventors used the pAC99 dual reporter plasmid. This dual reporter is used to quantify stop-codon readthrough through the measurement of luciferase and beta-galactosidase (internal normalisation) activities. Readthrough levels for nonsense mutations were analysed in the presence or absence of tested molecules. Cells are seeded in a 6-well plate. The next day, cells are transfected with the reporter plasmid using the JetPei reagent (Invitrogen). The following day, they are rinsed with fresh medium, with or without readthrough inducers. Cells were harvested 24 hours later, with trypsin—EDTA (Invitrogen), lysed with Glo lysis buffer (Promega) and beta-galactosidase and luciferase activities were assayed as previously described. Readthrough efficiency was estimated by calculating the ratio of luciferase activity to beta-galactosidase activity obtained with the test construct, with normalisation against an in-frame control construct. At least five independent transfection experiments were performed for each assay.

[4] = tested on: HDQ-P1 cells; experiment: WST1 tetrazolium viability assay, HDQ-P1; assay type: cell-based, human; conditions: HDQ-P1, 24 h, maximal dose used
Protocol: as §1

[5] = tested on: +1 programmed ribosomal frameshifting from OAZ1 gene; experiment: Frameshifting test, dual reporter; assay type: cell-based; conditions: treated vs untreated cells (FIG. 8)
From the text: TLN468 has no impact on both −1 and +1 programmed ribosomal frameshifting (PRF). No significant difference is observed between treated and untreated cells (right and left bars respectively). TLN468 has been tested on −1 PRF from HIV-1 and +1 PRF from OAZ1 gene.

[6] = tested on: 40 more frequent nonsense mutations found in DMD gene; experiment: Dual reporter readthrough on the 40 most frequent DMD nonsense mutations; assay type: cell-based; parameters: number of DMD nonsense sequences on which readthrough is promoted: dose or concentration left out as unconfirmed
From the text: Complementary oligonucleotides corresponding to TP53 R213X nonsense mutations and 9 nucleotides on both sides are ligated into the pAC99 dual reporter plasmid, as previously described (Premature stop codons involved in muscular dystrophies show a broad spectrum of readthrough efficiencies in response to gentamicin treatment, Bidou et al, Gene Therapy 1 Apr. 2004, 11(7):619-627). This dual reporter is used to quantify stop-codon readthrough through the measurement of luciferase and beta-galactosidase (internal calibration) activities, as previously described (Stahl et al, Versatile vectors to study recoding: conservation of rules between yeast and mammalian cells. Nucleic Acids Res 1995; 23:1557-60). Readthrough levels for nonsense mutations were analysed in the presence or absence of tested molecules. Cells were seeded in a 6-well plate. […] The following day, they are rinsed with fresh medium, with or without readthrough inducers. […] Readthrough efficiency was estimated by calculating the ratio of luciferase activity to beta-galactosidase activity obtained with the test construct, with normalisation against an in-frame control construct. […]
Each nonsense mutation (+9 nucleotides in each side) has been cloned into the dual reporter previously used. Stop codon readthrough efficiency has been quantified either without drug or in presence of gentamicin or TLN68, in 6 independent experiments. […]

[7] = tested on: p53-R213X transcriptional activity; experiment: TP53 protein activity assay (p53BS-luc reporter) in H1299 cells; assay type: cell-based, human; conditions: H1299 cotransfected with pCMV-R213X, pCMVLacZ, 20 hours, TLN68 20, 50, 80 and 100 mM as printed
Protocol: The inventors investigated the transcriptional activity of the p53 protein in H1299, a p53-null cell line. Cells were cotransfected, by the JetPei method, with the p53BS-luc reporter plasmid containing the firefly luciferase gene downstream from seven p53 binding sites, the pCMVLacZ and the pCMVp53R213X containing the p53 cDNA interrupted by the stop mutation R213X. TLN68 ([…]) was added to the medium just before transfection for a total of 20 hours of treatment. Protein extracts were then prepared and enzymatic activities were measured. Transfection with pCMVLacZ was used to normalise transfection efficiency, cell viability and protein extraction. At least six independent transfection experiments were performed for each set of conditions.

[8] = tested on: nonsense mutation R213X; experiment: pAC99 dual reporter readthrough in HeLa cells, R213X; assay type: cell-based, human; conditions: 24 hours
Protocol: as §2, §3

Cc1nc(NC(=N)N)nc2ccccc12 [TLN68]
viable cells [1]: 80%
induction of bax mRNA level relative to untreated [2]: 3 fold
Inducting factor of readthrough as compared to untreated cells (measured on nonsense mutation W1268X) [3]: 9
viable cells [4]: 70%
impact on +1 programmed ribosomal frameshifting [5]: no impact
readthrough compared with gentamicin on the DMD set of sequences ([6]; gentamicin 2.5 mM, same conditions): outperforms gentamicin
number of DMD nonsense sequences on which readthrough is promoted ([6]; out of 40 tested, 6 independent experiments): 28
increase of the p53-dependent luciferase [7]: 3.5 fold
Inducting factor of readthrough as compared to untreated cells (measured on nonsense mutation R213X) [8]: 14
